Experimental data taken from US20250115669A1, “FGFR1/KLB Targeting Agonistic Antigen-Binding Proteins and Conjugates Thereof with GLP-1R Agonistic Peptides” (SANOFI, priority 2020, published 2025).

What was measured:
[1] = Plasma concentrations and PK during three subcutaneous administrations in obese cynomolgus monkeys; format: in vivo, Cynomolgus monkey (Macaca fascicularis); conditions: subcutaneous doses of 1 mg/kg, male obese Cynomolgus monkeys
Description: Specifically, plasma concentrations and pharmacokinetic parameters were analyzed during a treatment of three subsequent subcutaneous administrations of 1 and 3 mg/kg in solution to male obese Cynomolgus monkeys. The exposure to both tested antibodies after subcutaneous doses of 1 mg/kg […] were similar. Moreover, plasma concentrations of both compounds were detected up to the end of sampling (i.e. 336 and 504 hours after the 2nd and the 3rd dose, respectively).

[2] = SAR16 (16H7) standalone and in combination with dulaglutide in DIO NASH cynomolgus monkeys; format: in vivo, Cynomolgus monkey (Macaca fascicularis)
Description: Both were tested as single administration and in combination of both in the most relevant animal model that reflects the intended human population. Thus, the pharmacokinetic and pharmacodynamics of varying doses of the compounds were explored in the high-fat diet-induced obese and insulin resistance cynomolgus monkey model with diagnosed non-alcoholic steatohepatitis (NASH), mimicking the adult human NASH insulin resistance phenotype.
Cynomolgus monkey (Macaca fascicularis) was selected as the test species of choice for more meaningful results that were translatable to humans. More than 50 male monkeys were trained to identify 40 HFD induced obese NASH monkeys for the study.
There was a run-in period during which monkeys were injected subcutaneously with vehicle every third day. Food intake (calculated as TEI) and water intake were measured daily along with twice-weekly body weight evaluation and baseline value determination for metabolic biomarkers, safety biomarkers, IV glucose tolerance test (IVGTT), liver biopsy for gene expression analysis, and profile for glucose, insulin, and plasma lipids.
For the dosing period 40 trained monkeys (n=10 per group) were selected and stratified for body weight, fasting plasma glucose (FPG), and fasting plasma insulin (FPI) and insulin response from baseline during the IVGTT. All treatments were administered subcutaneously for […]. The dosing period was designed as a four-arm, dose-ramping study, and monkeys were treated with either vehicle, SAR10, SAR16, or a combination of both SAR10 and SAR16.
The SAR10-treated monkeys were dosed every 3rd day at 60 μg/kg initiated by dose ramping (3 dose steps, week 1: 20 μg/kg, week 2: 40 μg/kg, week 3 to runout: 60 μg/kg). The SAR16-treated monkeys were dosed at 1 mg/kg on day +1, 3 mg/kg on day +16, and then repeat maintenance dose of 3 mg/kg on day +46. The Combo-treated monkey were dosed with both SAR10 and SAR16 as the same pattern of the SAR10 and SAR16 treated monkeys.
Other parameters were also measured during the study, including food intake, body fat, plasma ketone bodies, as well as blood glucose control (glucose profile, fed, fasting plasma glucose and during ivGTT). One group received the vehicle. The compounds were administered subcutaneously (SC) (12 weeks “evaluation phase” plus run-out) to obese and NASH male cynomolgus macaques (Macaca fascicularis).
The SAR10-treated monkeys were dosed every 3rd day at 60 μg/kg initiated by dose ramping (3 dose steps, week 1: 20 μg/kg, week 2: 40 μg/kg, week 3 to runout: 60 μg/kg). The SAR16-treated monkeys were dosed at 1 mg/kg on day +1, 3 mg/kg on day +16, and then repeat maintenance dose of 3 mg/kg on day +46. The Combo-treated monkey were dosed with both SAR10 and SAR16 at the same pattern of the SAR10 and SAR16 treated monkeys.

[3] = compared to the vehicle treated group
[4] = day +76 compared to baseline (day −27)

| Substance | exposure [1] | body weight (in words) ([2]; DIO NASH cynomolgus monkeys) | food intake ([2]; DIO NASH cynomolgus monkeys) | fasting glucose and fed glucose levels (12:30 and 18:30) [2, 3] | ivGTT glucose AUC [2, 3] | blood glucose levels, plasma profile [2, 4] | insulin, plasma profile [2, 4] | HDL levels, plasma profile ([2]; day +76 versus day −27) | T-ketones levels, plasma profile ([2]; day +76 versus day −27) | TC and LDL levels, plasma profile ([2]; day +76 versus day −27) | TG values, plasma profile ([2]; day +76 versus day −27) | liver fat fraction change (MRI) ([2]; measured on days +81/+82/+83/+84, DIO NASH cynomolgus monkeys) [%] | NASH steatosis score ([2]; more monkeys improved compared to vehicle treated group) |
| --- | --- | --- | --- | --- | --- | --- | --- | --- | --- | --- | --- | --- | --- |
| 16H7: anti FGFR1c/KLB monoclonal antibody of WO 2011/071783, IgG2 backbone; HC SEQ ID NO: 1, LC SEQ ID NO: 2 [Ab 16H7] | similar | Significant reductions in body weight | Reduction of food intake | No significant change | significantly decreased | appreciable decreases | decreased | slightly increased | increased T-ketones levels | quite stable | lower TG values | −30.0 | improved steatosis score |
| Ab0335: IgG4 PE; 16H7 VL (N25S, D49S, D50A, D91E, N93E); 16H7 VH (M34V, I83T, D109E); HC SEQ ID NO: 39, LC SEQ ID NO: 46 | similar | – | – | – | – | – | – | – | – | – | – | – | – |
